According to patent US20120165306A1, “PYRAZINYLPYRIDINES USEFUL FOR THE TREATMENT OF PROLIFERATIVE DISEASES” (priority 2009, published 2012):

Target: Cdk9/cyclinT1 (Homo sapiens, UniProt P50750)
Assay: Cdk9/cyclinT1 kinase assay (IMAP or Alpha Screen protocol)

Chain of Cdk9/cyclinT1 (P50750 whole entry): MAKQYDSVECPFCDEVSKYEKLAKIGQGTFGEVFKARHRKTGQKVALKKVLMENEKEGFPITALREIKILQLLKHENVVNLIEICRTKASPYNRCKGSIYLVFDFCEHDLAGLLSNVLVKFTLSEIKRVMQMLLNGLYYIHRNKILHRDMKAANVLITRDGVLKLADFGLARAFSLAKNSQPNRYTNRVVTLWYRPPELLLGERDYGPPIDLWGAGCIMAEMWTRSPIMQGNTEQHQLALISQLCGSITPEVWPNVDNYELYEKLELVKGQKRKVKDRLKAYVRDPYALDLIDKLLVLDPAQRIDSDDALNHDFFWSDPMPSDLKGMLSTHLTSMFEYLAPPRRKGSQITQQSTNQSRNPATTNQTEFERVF
Chain of Cdk9/cyclinT1 (O60563 whole entry partner): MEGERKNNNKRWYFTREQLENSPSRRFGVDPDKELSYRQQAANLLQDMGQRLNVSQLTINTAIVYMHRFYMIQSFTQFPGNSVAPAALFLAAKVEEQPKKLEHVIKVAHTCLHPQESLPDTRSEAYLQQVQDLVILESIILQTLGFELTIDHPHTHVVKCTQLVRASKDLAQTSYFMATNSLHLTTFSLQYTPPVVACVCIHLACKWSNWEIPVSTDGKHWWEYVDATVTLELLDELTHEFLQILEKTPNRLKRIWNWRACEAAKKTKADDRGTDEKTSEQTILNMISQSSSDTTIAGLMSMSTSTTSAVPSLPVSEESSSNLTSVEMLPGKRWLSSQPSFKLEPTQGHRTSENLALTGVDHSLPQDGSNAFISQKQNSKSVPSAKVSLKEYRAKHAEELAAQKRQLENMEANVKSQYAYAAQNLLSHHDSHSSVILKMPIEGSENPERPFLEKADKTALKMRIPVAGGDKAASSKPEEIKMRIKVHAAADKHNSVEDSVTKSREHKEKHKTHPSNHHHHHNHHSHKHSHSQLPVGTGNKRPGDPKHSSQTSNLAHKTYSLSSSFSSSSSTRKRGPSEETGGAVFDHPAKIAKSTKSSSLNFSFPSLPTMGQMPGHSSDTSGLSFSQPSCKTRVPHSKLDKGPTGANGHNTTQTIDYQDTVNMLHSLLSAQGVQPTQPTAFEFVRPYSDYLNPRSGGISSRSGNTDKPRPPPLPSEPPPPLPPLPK

Row | IC50 | Compound
1 | 19 nM | O=C(Nc1cc(-c2cncc(NC[C@H]3CCCO3)n2)c(Cl)cn1)[C@@H]1CCCNC1 [Example 31, (R)-Piperidine-3-carboxylic acid [5-chloro-4-(6-{[(R)-1-(tetrahydro-furan-2-yl)methyl]-amino}-pyrazin-2-yl)-pyridin-2-yl]-amide]
2 | 316 nM | COCCN1CCC[C@@H](C(=O)Nc2cc(-c3cncc(NCC4CCOCC4)n3)c(Cl)cn2)C1 [Example 3]
3 | 124 nM | COCC(=O)Nc1cc(-c2cncc(NCC3CCOCC3)n2)c(Cl)cn1 [Example 10, N-(5-Chloro-4-{6-[(tetrahydro-pyran-4-ylmethyl)-amino]-pyrazin-2-yl}-pyridin-2-yl)-2-methoxy-acetamide]
4 | < 8 nM | O=C(Nc1cc(-c2cncc(NCC3CCOCC3)n2)c(Cl)cn1)C1CCOCC1 [Example 15, Tetrahydro-pyran-4-carboxylic acid (5-chloro-4-{6-[(tetrahydro-pyran-4-ylmethyl)-amino]-pyrazin-2-yl}-pyridin-2-yl)-amide]
